{
  "source": "paper PMC12291837",
  "about": "“Elephant Cathelicidin-Derived Peptides Inhibit Herpes Simplex Virus 1 Infection” (Antibiotics, 2025)",
  "key": {"U251 cells": {"tested_on": "U251 cells", "experiment": "Cytotoxicity assay (CCK-8) on U251 cells", "assay_type": "cell-based, Human", "conditions": "24 h", "experimental": "(§1) Human glioma cells (U251) were maintained in Dulbecco’s Modified Eagle Medium (DMEM; Gibco, Waltham, MA, USA) supplemented with 10% heat-inactivated fetal bovine serum (FBS; ExCell), 100 U/mL penicillin, and 100 µg/mL streptomycin. Serum inactivation was performed at 56 °C for 30 min prior to medium supplementation. Cell cultures were incubated at 37 °C under 5% CO2 atmosphere. The HSV-1 17 + strain utilized in this study was maintained under laboratory preservation conditions.\nCell viability was evaluated by using cell counting kit-8 reagent (CCK-8, Biosharp, Shanghai, China) according to the manufacturer’s protocol. Briefly, U251 cells were seeded in 96-well culture plates and cultured for 12 h at 37 °C. The cells were then treated with or without peptides for 24 h. After that, 10 μL of the CCK-8 reaction mixture were added to each well and incubated at 37 °C for 0.5–4 h. The absorbance of each well was measured at 450 nm with a SpectraMax M2e Multi-Mode Microplate Reader (Molecular Devices, USA). The formula for calculating cell viability is as follows:\nCell viability (%) = (average OD of treated sample-average OD of vehicle sample)/(average OD of cell sample-average OD of vehicle sample) × 100%"}, "HSV-1 [1]": {"tested_on": "HSV-1", "experiment": "microbe, parasite or virus in culture", "assay_type": "cell-based, Herpes simplex virus type 1 (HSV-1 17 + strain)", "conditions": "U251 cells", "experimental": "as §1\nU251 cells were seeded into 12-well plates at a density of 2 × 10^5 cells per well and incubated for 12 h. […] Following treatment, the total DNA was extracted by using DNA isolation mini kit (Vazyme, Nanjing, China) under the manufacturer’s instructions.\nTotal RNA was extracted using TRIzol reagent (Invitrogen, Carlsbad, CA, USA). One microgram of RNA was reverse-transcribed into cDNA by using a reverse transcription kit (Vazyme, China). Diluted gDNA and cDNAs were subjected to qPCR analysis using ChamQ Universal SYBR qPCR Master Mix (Vazyme, China) with the following parameters: 95 °C for 30 s, followed by 40 cycles of 95 °C for 5 s and 60 °C for 30 s, followed by melting curve analysis. Primers for qPCR were synthesized by Sangon Biotech (Shanghai, China) (Appendix A Table A2). The qPCR data were analyzed using the 2^−ΔΔCt method."}, "HSV-1 [2]": {"tested_on": "HSV-1", "experiment": "HSV-1 footpad inoculation mouse model, viral load (UL30 gene copies) and lung H&E histology", "assay_type": "in vivo", "conditions": "C57BL/6J mice, 10 mg/kg i.p. once daily for 5 days", "experimental": "Female C57BL/6J mice, aged 6–8 weeks, were purchased from Beijing Vital River Laboratory Animal Technology Co., Ltd. (Beijing, China). […] Except for the vehicle control group, mice in the other groups were subplantarly infected with HSV-1 at a dose of 1.0 × 10^6 PFU per mouse. […] The vehicle control and virus control groups received an equivalent volume of phosphate-buffered saline (PBS). Mice were euthanized 24 h after the last administration, and tissue samples were collected. Body weight was measured daily at a fixed time during the treatment period to generate weight change curves.\nTissues were homogenized using a tissue grinder and total DNA was extracted from homogenate supernatants using a DNA isolation mini kit (Vazyme, China) under the manufacturer’s instructions. To establish a standard curve for real-time quantitative PCR (qPCR), the UL30 gene was used as the target sequence, and a recombinant plasmid containing this gene was constructed. In brief, the UL30 gene was cloned into the pMD19-T vector and transformed into DH5α. After verification by colony PCR and sequencing, high-purity plasmid DNA was extracted, and its concentration was measured using Nanodrop and converted into copy numbers (copies/μL). Then a 10-fold serial dilution (10^1–10^8 copies/μL) was prepared to generate the standard curve. Using the extracted DNA as a template, UL30 gene copy numbers were quantified in mouse tissues through qPCR with UL30 specific primers.\nTissues were fixed in 4% paraformaldehyde for 72 h and subsequently processed by Servicebio Biotechnology Co., Ltd. (Wuhan, China) for paraffin embedding, pathological sectioning, and hematoxylin eosin (H&E) staining."}},
  "note": "Where no end group is shown, it is not given here.",
  "data": [
    {"compound": "RRIRGLRKFFRKSKEKLKKV-NH2 [EM-1]", "values": [
      {"measurement": "CC50 (median cytotoxic concentration)", "setting": "U251 cells", "result": "214.55 ± 36.25", "unit": "µM"}
    ]},
    {"compound": "GRRVKGFFRDVLRRVPYLPGPR-NH2 [EM-2, modified peptide derived from Elephas maximus cathelicidin EM]", "values": [
      {"measurement": "Relative DNA levels of HSV-1 UL30", "setting": "HSV-1 [1]; HSV-1 MOI = 0.1, 24 h, 10 μM peptide, versus virus control group, p < 0.001", "result": "marked suppression of HSV-1 activity"},
      {"measurement": "Cytotoxic effect on U251 cells (cell viability)", "setting": "U251 cells; U251 cells, CCK-8, 5 μM and 10 μM, compared to peptide EM, EM-3 and EM-4", "result": "significantly lower toxicity"}
    ]},
    {"compound": "Nc1nc2c(ncn2COCCO)c(=O)[nH]1", "note": "[ACV, Acyclovir]", "values": [
      {"measurement": "IC50", "setting": "HSV-1 [1]; Human alphaherpesvirus 1, U-251, HSV-1 MOI = 0.1, co-treatment 24 h, qPCR of UL30 DNA, mean ± SEM of three independent experiments, read-out: IC50 against HSV-1", "result": "17.6 ± 5.75", "unit": "µM"},
      {"measurement": "Lung tissue viral load (HSV-1 UL30 gene copies)", "setting": "HSV-1 [2]; HSV-1 footpad 1.0 × 10^6 PFU, day 5 post-infection, n = 5, HSV-1 control 7.02 ± 0.57", "result": "6.01 ± 0.13", "unit": "log10 copies/μL"},
      {"measurement": "Heart tissue viral load versus HSV-1 control group", "setting": "HSV-1 [2]; HSV-1 footpad, n = 5, HSV-1 control 7.78 ± 0.41 log10 copies/μL", "result": "neither the EM-1 nor the ACV treatment group showed a significant difference"},
      {"measurement": "Lung histopathology (H&E staining)", "setting": "HSV-1 [2]; HSV-1 footpad, compared with HSV-1 control group", "result": "preserved normal alveolar architecture"}
    ]}
  ]
}
